Experimental data taken from PMC11873239, “A covalent chemical probe for Chikungunya nsP2 cysteine protease with antialphaviral activity and proteome-wide selectivity” (Scientific Reports, 2025).
“And” between values parts separate entries of the source, which are not always exact repeats. Identical values can stand only once.

How the values were obtained:
Type in all cases: binding
[1] = molecular target: HEK293 cell lysate proteins and CHIKV nsP2 (Homo sapiens, UniProt Q9Y520)
[2] = molecular target: HEK293 cell lysate proteins and CHIKV nsP2 (Homo sapiens, UniProt O15042)
[3] = molecular target: HEK293 cell lysate proteins and CHIKV nsP2 (Homo sapiens, UniProt Q8NFC6)
[4] = molecular target: HEK293 cell lysate proteins and CHIKV nsP2 (Homo sapiens, UniProt P08621)
[5] = molecular target: HEK293 cell lysate proteins and CHIKV nsP2 (Homo sapiens, UniProt Q96QA5)
[6] = molecular target: HEK293 cell lysate proteins and CHIKV nsP2 (Homo sapiens, UniProt P04040)
[7] = molecular target: HEK293 cell lysate proteins and CHIKV nsP2 (Homo sapiens, UniProt P11388)
[8] = molecular target: HEK293 cell lysate proteins and CHIKV nsP2 (Homo sapiens, UniProt Q96P63)
[9] = molecular target: HEK293 cell lysate proteins and CHIKV nsP2 (Homo sapiens, UniProt Q5JTH9)
[10] = molecular target: HEK293 cell lysate proteins and CHIKV nsP2 (Homo sapiens, UniProt P13639)
[11] = molecular target: HEK293 cell lysate proteins and CHIKV nsP2 (Homo sapiens, UniProt P32119)
[12] = molecular target: HEK293 cell lysate proteins and CHIKV nsP2 (Homo sapiens, UniProt O43290)
[13] = molecular target: HEK293 cell lysate proteins and CHIKV nsP2 (Homo sapiens, UniProt P59665)
[14] = molecular target: HEK293 cell lysate proteins and CHIKV nsP2 (Homo sapiens, UniProt O60814)
[15] = molecular target: HEK293 cell lysate proteins and CHIKV nsP2 (Homo sapiens, UniProt O75342)
[16] = molecular target: HEK293 cell lysate proteins and CHIKV nsP2 (Homo sapiens, UniProt P10599)
[17] = molecular target: HEK293 cell lysate proteins and CHIKV nsP2 (Homo sapiens, UniProt P60709)
[18] = molecular target: HEK293 cell lysate proteins and CHIKV nsP2 (Homo sapiens, UniProt Q99459)
[19] = molecular target: HEK293 cell lysate proteins and CHIKV nsP2 (Homo sapiens, UniProt Q6ZVX7)
[20] = molecular target: HEK293 cell lysate proteins and CHIKV nsP2 (Homo sapiens, UniProt P04259)
[21] = molecular target: HEK293 cell lysate proteins and CHIKV nsP2 (Homo sapiens, UniProt O14617)
[22] = molecular target: HEK293 cell lysate proteins and CHIKV nsP2 (Homo sapiens, UniProt Q13428)
[23] = molecular target: HEK293 cell lysate proteins and CHIKV nsP2 (Homo sapiens, UniProt P55786)
[24] = molecular target: HEK293 cell lysate proteins and CHIKV nsP2 (Homo sapiens, UniProt P07355)
[25] = molecular target: HEK293 cell lysate proteins and CHIKV nsP2 (Homo sapiens, UniProt Q9NWH9)
[26] = molecular target: HEK293 cell lysate proteins and CHIKV nsP2 (Homo sapiens, UniProt Q92616)
[27] = molecular target: HEK293 cell lysate proteins and CHIKV nsP2 (Homo sapiens, UniProt Q00610)
[28] = molecular target: HEK293 cell lysate proteins and CHIKV nsP2 (Homo sapiens, UniProt Q9UQ35)
[29] = molecular target: HEK293 cell lysate proteins and CHIKV nsP2 (Homo sapiens, UniProt Q99549)
[30] = molecular target: HEK293 cell lysate proteins and CHIKV nsP2 (Homo sapiens, UniProt Q9Y5B9)
[31] = molecular target: HEK293 cell lysate proteins and CHIKV nsP2 (Homo sapiens, UniProt P46821)
[32] = molecular target: HEK293 cell lysate proteins and CHIKV nsP2 (Homo sapiens, UniProt Q08554)
[33] = molecular target: HEK293 cell lysate proteins and CHIKV nsP2 (Homo sapiens, UniProt P05090)
[34] = molecular target: HEK293 cell lysate proteins and CHIKV nsP2 (Homo sapiens, UniProt Q14241)
[35] = molecular target: HEK293 cell lysate proteins and CHIKV nsP2 (Homo sapiens, UniProt P27816)
[36] = molecular target: HEK293 cell lysate proteins and CHIKV nsP2 (Homo sapiens, UniProt Q6KC79)

Sequence of HEK293 cell lysate proteins and CHIKV nsP2 (Homo sapiens, UniProt Q13428) (Q13428 whole entry): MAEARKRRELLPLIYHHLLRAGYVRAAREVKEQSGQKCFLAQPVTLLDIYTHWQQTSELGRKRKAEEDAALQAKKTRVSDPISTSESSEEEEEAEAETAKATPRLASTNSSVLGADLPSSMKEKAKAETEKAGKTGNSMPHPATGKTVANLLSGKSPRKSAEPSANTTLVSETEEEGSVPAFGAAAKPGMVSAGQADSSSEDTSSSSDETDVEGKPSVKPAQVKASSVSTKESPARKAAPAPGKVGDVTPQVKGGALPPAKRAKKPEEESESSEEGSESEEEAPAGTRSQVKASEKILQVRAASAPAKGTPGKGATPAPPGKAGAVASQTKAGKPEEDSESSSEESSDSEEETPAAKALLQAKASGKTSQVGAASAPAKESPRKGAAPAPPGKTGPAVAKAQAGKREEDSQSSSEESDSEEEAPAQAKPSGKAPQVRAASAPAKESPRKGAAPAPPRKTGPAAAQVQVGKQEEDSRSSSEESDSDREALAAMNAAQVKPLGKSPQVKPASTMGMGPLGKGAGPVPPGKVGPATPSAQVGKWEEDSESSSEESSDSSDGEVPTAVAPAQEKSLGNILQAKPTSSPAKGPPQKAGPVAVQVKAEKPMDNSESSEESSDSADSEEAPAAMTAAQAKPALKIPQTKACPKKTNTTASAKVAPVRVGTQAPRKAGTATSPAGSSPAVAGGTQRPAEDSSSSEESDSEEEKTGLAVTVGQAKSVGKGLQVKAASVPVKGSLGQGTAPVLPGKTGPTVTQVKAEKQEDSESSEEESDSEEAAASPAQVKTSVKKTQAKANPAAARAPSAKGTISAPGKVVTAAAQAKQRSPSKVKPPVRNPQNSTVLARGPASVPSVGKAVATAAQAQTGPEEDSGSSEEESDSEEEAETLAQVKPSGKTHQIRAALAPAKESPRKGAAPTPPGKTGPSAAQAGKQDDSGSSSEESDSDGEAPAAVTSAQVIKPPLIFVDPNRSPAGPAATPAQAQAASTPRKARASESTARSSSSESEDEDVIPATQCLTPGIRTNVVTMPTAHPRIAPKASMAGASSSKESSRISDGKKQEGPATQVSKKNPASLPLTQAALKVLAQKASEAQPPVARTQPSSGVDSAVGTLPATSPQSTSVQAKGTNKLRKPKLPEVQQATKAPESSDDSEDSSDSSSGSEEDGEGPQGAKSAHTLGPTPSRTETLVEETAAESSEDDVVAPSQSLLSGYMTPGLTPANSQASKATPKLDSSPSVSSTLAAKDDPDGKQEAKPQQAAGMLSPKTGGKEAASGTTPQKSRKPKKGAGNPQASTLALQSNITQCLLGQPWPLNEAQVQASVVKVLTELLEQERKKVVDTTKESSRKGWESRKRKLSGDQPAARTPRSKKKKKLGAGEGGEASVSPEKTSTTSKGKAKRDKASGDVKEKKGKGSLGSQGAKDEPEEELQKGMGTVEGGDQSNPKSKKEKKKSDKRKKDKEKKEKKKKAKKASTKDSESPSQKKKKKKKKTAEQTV
Sequence of HEK293 cell lysate proteins and CHIKV nsP2 (Homo sapiens, UniProt P46821) (P46821 whole entry): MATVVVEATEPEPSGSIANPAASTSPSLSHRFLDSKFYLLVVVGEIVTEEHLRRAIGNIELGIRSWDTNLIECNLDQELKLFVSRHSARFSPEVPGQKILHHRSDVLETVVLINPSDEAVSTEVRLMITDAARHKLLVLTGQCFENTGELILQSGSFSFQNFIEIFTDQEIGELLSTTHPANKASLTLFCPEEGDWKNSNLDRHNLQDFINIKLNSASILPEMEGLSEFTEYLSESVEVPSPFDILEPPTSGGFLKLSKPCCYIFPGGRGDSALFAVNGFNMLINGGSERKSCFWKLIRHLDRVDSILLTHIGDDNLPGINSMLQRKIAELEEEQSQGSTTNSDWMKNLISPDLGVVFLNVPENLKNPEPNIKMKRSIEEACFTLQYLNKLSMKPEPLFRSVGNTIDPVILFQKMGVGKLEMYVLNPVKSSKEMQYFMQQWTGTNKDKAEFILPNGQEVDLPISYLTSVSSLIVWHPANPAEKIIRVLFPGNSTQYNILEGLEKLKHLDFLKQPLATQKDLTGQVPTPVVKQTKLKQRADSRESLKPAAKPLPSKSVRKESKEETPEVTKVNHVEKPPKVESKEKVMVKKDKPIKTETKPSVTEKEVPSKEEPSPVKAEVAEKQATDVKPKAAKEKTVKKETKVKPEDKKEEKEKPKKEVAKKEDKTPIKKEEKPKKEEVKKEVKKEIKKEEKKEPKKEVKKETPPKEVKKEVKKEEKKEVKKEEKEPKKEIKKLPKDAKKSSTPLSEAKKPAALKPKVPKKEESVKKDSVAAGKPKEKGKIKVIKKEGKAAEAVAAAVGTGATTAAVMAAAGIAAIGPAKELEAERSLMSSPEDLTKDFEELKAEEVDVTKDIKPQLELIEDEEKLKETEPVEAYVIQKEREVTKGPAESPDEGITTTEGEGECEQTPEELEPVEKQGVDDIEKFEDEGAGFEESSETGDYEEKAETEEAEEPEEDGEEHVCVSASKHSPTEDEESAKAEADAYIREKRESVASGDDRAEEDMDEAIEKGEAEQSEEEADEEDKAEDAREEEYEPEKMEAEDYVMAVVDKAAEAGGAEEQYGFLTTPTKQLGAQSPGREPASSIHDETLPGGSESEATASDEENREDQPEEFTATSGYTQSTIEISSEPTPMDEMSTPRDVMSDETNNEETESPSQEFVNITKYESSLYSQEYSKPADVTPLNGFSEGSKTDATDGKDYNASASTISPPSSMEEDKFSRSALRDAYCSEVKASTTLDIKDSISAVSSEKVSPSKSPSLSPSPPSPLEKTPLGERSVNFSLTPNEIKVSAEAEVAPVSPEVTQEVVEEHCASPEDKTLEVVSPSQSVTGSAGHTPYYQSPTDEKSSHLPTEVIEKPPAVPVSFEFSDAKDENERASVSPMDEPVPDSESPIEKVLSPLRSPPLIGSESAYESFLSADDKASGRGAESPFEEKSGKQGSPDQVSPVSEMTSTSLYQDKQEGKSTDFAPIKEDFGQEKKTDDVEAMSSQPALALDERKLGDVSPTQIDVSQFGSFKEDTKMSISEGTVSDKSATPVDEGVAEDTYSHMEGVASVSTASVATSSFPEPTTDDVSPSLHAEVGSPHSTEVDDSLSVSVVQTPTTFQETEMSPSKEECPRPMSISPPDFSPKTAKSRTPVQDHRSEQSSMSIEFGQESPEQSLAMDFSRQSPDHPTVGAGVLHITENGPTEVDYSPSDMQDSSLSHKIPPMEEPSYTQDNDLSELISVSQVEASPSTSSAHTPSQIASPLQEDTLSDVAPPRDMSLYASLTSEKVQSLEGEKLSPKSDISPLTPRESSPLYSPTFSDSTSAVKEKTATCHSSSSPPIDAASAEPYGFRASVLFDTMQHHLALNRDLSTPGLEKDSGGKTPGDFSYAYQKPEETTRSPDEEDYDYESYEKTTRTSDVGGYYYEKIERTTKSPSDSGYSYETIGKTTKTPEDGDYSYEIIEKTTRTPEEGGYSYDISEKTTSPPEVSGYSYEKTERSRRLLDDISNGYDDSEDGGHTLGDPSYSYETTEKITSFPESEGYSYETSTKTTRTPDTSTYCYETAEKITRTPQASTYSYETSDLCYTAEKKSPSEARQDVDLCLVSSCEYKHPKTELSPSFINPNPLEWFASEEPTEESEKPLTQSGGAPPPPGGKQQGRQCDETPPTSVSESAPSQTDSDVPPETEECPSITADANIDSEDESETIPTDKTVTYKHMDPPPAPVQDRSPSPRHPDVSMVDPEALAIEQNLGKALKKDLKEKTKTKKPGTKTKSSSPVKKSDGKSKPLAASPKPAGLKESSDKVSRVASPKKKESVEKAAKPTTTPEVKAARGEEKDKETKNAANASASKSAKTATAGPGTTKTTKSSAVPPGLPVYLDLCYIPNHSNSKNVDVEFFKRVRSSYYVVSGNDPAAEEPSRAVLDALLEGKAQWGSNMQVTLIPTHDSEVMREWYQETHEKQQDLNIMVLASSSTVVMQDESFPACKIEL
Sequence of HEK293 cell lysate proteins and CHIKV nsP2 (Homo sapiens, UniProt P04040) (P04040 whole entry): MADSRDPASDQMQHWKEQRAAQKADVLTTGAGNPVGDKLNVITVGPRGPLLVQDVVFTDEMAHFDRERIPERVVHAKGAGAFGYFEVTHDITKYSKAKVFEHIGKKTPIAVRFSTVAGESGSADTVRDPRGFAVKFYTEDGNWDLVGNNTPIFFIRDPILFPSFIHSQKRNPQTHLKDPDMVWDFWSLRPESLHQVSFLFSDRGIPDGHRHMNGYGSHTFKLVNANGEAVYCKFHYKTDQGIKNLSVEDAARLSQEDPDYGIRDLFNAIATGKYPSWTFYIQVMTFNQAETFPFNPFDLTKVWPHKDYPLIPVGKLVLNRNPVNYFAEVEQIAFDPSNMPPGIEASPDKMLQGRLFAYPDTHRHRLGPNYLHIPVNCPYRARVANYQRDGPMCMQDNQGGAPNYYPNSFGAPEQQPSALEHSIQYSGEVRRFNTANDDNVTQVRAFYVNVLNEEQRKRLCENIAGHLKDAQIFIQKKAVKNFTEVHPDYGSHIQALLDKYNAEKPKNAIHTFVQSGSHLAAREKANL
Sequence of HEK293 cell lysate proteins and CHIKV nsP2 (Homo sapiens, UniProt P10599) (P10599 whole entry): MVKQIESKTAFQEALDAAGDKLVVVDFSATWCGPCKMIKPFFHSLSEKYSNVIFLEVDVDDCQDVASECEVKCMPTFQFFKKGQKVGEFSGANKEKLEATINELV
Sequence of HEK293 cell lysate proteins and CHIKV nsP2 (Homo sapiens, UniProt P07355) (P07355 whole entry): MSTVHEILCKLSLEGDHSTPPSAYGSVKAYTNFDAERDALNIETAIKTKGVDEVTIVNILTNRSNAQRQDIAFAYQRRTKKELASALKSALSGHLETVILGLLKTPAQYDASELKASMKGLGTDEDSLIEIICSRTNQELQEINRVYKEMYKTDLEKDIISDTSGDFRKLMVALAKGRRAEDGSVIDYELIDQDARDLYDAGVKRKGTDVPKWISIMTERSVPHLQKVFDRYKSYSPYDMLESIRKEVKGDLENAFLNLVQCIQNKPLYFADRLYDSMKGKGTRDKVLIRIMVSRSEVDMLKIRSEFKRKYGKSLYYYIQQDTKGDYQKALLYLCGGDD
Sequence of HEK293 cell lysate proteins and CHIKV nsP2 (Homo sapiens, UniProt P05090) (P05090 21-189): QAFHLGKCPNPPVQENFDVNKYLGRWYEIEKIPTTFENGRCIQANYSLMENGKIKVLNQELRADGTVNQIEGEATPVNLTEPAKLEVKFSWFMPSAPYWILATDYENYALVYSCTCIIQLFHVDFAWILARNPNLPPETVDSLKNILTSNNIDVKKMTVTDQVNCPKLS

With `C#CCOc1ccccc1-c1cc(C(=O)NC/C=C/S(C)(=O)=O)on1` [VS, (E)-N-(3-(methylsulfonyl)allyl)−3-(2-(prop-2-yn-1-yloxy)phenyl)isoxazole-5-carboxamide] the Log2 fold change [1] was 0.50, the Log2 fold change [2] was 0.06 and the Log2 fold change [3] was 0.23. For the same compound, the Log2 fold change [4] was 3.47, the Log2 fold change [5] was 1.51 and the Log2 fold change [6] was 1.41. It also gave a Log2 fold change [7] of -1.34, a Log2 fold change [8] of 1.71 and a Log2 fold change [9] of -0.0263. For the same compound, the Log2 fold change [10] was 1.35, the Log2 fold change [11] was 2.04 and the Log2 fold change [12] was 0.62. The Log2 fold change [13] was -2.83, the Log2 fold change [14] was -1.93 and the Log2 fold change [15] was 2.14. The Log2 fold change [16] was 1.84, the Log2 fold change [17] was 1.54 and the Log2 fold change [18] was -0.00878. It also gave a Log2 fold change [19] of 2.74, a Log2 fold change [20] of 3.24 and a Log2 fold change [21] of -0.93. For the same compound, the Log2 fold change [22] was 1.02 and 1.32, the Log2 fold change [23] was 2.43 and the Log2 fold change [24] was 1.52. The Log2 fold change [25] was -0.40, the Log2 fold change [26] was -2.86 and the Log2 fold change [27] was 3.09. For the same compound, the Log2 fold change [28] was 0.25, the Log2 fold change [29] was 0.0737 and the Log2 fold change [30] was -3.45. For the same compound, the Log2 fold change [31] was -0.63, the Log2 fold change [32] was 0.93 and the Log2 fold change [33] was 6.55. For the same compound, the Log2 fold change [34] was -1.01, the Log2 fold change [35] was -0.37 and the Log2 fold change [36] was -0.34.
